Data taken from publication PMC9356039, “Multifunctional synthetic nano-chaperone for peptide folding and intracellular delivery” (Nature Communications, 2022).
Each block holds one molecule with its values, some of them ahead of it.

How the values were obtained:
[1] = target: MDM2(1-118), a part of the target protein possessing the p53pep binding site (UniProt Q00987)
[2] = CD spectroscopy, α-helicity by CONTIN-LL; format: physicochemical; details: for helix %: CONTINLL from CD spectra, Avg of replicates Ⅰ-Ⅲ; for α-Helicity, helix % avg: CD spectra, CONTINLL, summary table, mean of n = 3
Description: CD spectra were measured using a J-810 spectropolarimeter (JASCO, Japan). Spectra were recorded from 250 nm to 190 nm wavelength using a 1 cm path-length cuvette. Scans were repeated five times and averaged. Molar ellipticity was calculated per amino acid residue. The concentrations of SNCP and p53pep were 0.2 mg/mL and 20 μM, respectively. All sample suspensions were incubated at least for 2 days at room temperature before CD measurement. To perform temperature-dependent CD experiments, the spectra were recorded at 10 °C interval over a temperature range of 25 to 75 °C, with 30 min incubation time to reach equilibrium at each temperature. The α-helicity of peptides was calculated by using the CONTIN-LL algorithms provided from the DICHROWEB server.

[3] = target: T1, MDM2_1-118 (hMDM2 protein) (Homo sapiens, UniProt Q00987); assay: Fluorescence polarization binding affinity; details: peptide 50 nM, PBS pH 7.4, 0.01% Tween20, 10 mM DTT, 2% DMSO, room temperature, N = 3, mean ± SD
T1 construct: purchased SignalChem (Canada)
T1 sequence (Q00987 1-118): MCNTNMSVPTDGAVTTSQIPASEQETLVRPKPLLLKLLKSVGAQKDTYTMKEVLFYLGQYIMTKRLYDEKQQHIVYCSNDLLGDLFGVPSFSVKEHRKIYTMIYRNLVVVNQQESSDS
Description: Each of p53pep and st-p53pep (50 nM) were incubated with MDM2_1-118 with various concentrations in binding assay buffer (PBS pH 7.4 with 0.01% Tween20, 10 mM DTT, 2% DMSO) at room temperature. Binding affinity was measured by fluorescence polarization on a Biotek Synergy Neo2 multi-mode microplate reader. Kd values were determined by nonlinear regression analysis.

HepG2 cells = assay: CCK-8 cell viability; format: cell-based, human; details: 24 h, 50
Description: Human liver cancer cell line HepG2 were grown in DMEM containing 10% FBS and 1% penicillin/streptomycin at 37 °C in a humidified atmosphere of 5% CO2. HepG2 cells (1.2 × 10^5 cells/well) were seeded in a 4-well glass plate for 24 h. Then, SNCPs@st-p53pep (0.02 mg/mL) and st-p53pep alone (2 μM) were added to each well in a serum-free medium for 4 h. After incubation, the cells were carefully rinsed with PBS, and the medium was replaced with a serum-containing fresh medium. After the nucleus was stained with Hoechst 33342 staining kit by manufacturer’s protocol, bright field and fluorescence images were obtained by using a DeltaVision Elite Microscopy System (GE Healthcare, USA). To observe the distribution of SNCP8 and st-p53pep in cells, TAMRA-labeled SNCP8@FAM-labeled st-p53pep (0.25 mg/mL) was treated in the same manner instead of SNCP8@st-p53pep. And then, the Mander’s overlap coefficient (MOC) was calculated in the Image J program (ver. 1.52a) via the JACoP plugin to identify co-localization between fluorescence signals over time. […] The cell viability was determined using cell counting kit-8 (CCK-8) assay by monitoring absorbance at 450 and 670 nm wavelength measured using a microplate reader (Molecular Devices, Inc., USA). The EC50 values of SNCPs@st-p53pep were determined by the logistic curve-fitting method with Origin (OriginLab, USA).

[4] = Water solubility (in words); format: physicochemical
proteinase K [5] = assay: in vitro; format: in vitro ADME; details: isolated enzyme proteinase k
Description: (§1) To investigate whether SNCP8@st-p53pep could effectively suppress tumor growth in vivo, we evaluated the anti-tumor effect of SNCP8@st-p53pep using human liver cancer (HepG2) xenograft bearing mouse model. Mice were treated with SNCP8@st-p53pep and controls by intratumoral injection every three days and tumor volume changes were monitored for 14 days. […] Next, we monitored distribution of TAMRA-SNCP8 (red), FAM-st-p53pep (green), and TAMRA-SNCP8@FAM-st-p53pep in the tumor-bearing mouse overtime after intratumoral injection. As shown in Fig. 5b and Supplementary Fig. 20, green fluorescence signal in the tumor treated with TAMRA-SNCP8@FAM-st-p53pep slowly diminished during 72 h, while signal in tumor treated with FAM-st-p53pep alone quickly disappeared within 24 h. […] To compare the lifetime of st-p53pep in tumor more precisely, we calculated the half-life (t1/2) of green fluorescence decay for each sample by analyzing region of interest (ROI) on the basis of whole-body fluorescence image (Fig. 5c).
(§2) Supplementary Figure 19. The proteolytic degradation of p53pep. Semi-quantitative analysis of protease-mediated degradation of p53pep by using the matrix-assisted laser desorption ionization time-of-flight mass spectrometry ( MALDI-TOF MS).
(§3) (a) Mass spectrum of p53pep without SNCP8 (left) and with SNCP8 (right) over 12 h.
(§4) The cumulative remaining p53pep in short (b) and long (c) periods in different conditions: p53pep (circle) and SNCP8@p53pep (square). Rapid degradation of free p53pep within 1 min is observed while the degradation of p53pep inside the SNCP8 […]
(§5) proteinase K (N = 3, biologically independent samples; mean ± SD).
(§6) (1 picture or pasted object on this page, not shown here)

proteinase K [6] = target: proteinase K (Parengyodontium album, UniProt P06873); assay: in vitro; format: in vitro ADME
Chain of proteinase K (Parengyodontium album, UniProt P06873) (P06873 106-384, species assumed): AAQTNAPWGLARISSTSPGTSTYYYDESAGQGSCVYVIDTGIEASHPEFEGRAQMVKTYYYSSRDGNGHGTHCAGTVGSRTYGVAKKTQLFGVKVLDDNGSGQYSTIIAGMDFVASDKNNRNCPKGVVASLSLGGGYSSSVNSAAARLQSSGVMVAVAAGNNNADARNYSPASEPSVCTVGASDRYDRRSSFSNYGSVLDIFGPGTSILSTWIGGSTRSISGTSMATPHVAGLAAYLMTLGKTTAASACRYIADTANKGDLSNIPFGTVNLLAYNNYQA
Description: as §1, §2, §3, §4, §5, §6

[7] = target: synthetic p53 peptide (p53pep); assay: fluorescence polarisation; 50 nM FAM-labelled peptide incubated with MDM2(1-118) at various concentrations; PBS pH 7.4 with 0.01% Tween20, 10 mM DTT, 2% DMSO; room temperature; Kd by nonlinear regression
[8] = target: stapled p53 peptide prepared by click reaction (st-p53pep); assay: as above

Chain of MDM2(1-118), a part of the target protein possessing the p53pep binding site (from UniProt Q00987 1-118) (domain or fragment) (Q00987 1-118): as the sequence (Q00987 1-118) above
Chain of MDM2(1-118), a part of the target protein possessing the p53pep binding site (UniProt Q00987) (Q00987 1-118): as above

Molecule: synthetic p53 peptide (p53pep)
viability of HepG2 cells (CCK-8) at the corresponding dose of SNCP8@p53pep (unstapled peptide delivered in SNCP8) [1]: > 80%

helix % ([2]; 25C): 39.4% | α-Helicity, helix % avg ([2]; 25 ℃): 39.4% | helix % ([2]; 35C): 35.9% | α-Helicity, helix % avg ([2]; 35 ℃): 35.9% | helix % ([2]; 45C): 37.5% | α-Helicity, helix % avg ([2]; 45 ℃): 37.5% | helix % ([2]; 55C): 36.5667% | helix % ([2]; 65C): 34.0667% | helix % ([2]; 75C): 35.9667% | Kd [3]: 80.6 ± 2.33 nM | solubility in water (in words) [4]: insoluble in water | remaining at 1 min (proteinase K [5]): 16.9% | remaining at 0.05 h (proteinase K [5]): 8.39% | remaining at 5 min (proteinase K [5]): 5.56% | remaining at 10 min (proteinase K [5]): 3.21% | remaining at 0.5 h (proteinase K [5]): 6.68% | remaining at 1 h (proteinase K [5]): 9.04% | remaining at 12 h (proteinase K [5]): 3.85% | time of degradation by proteinase K (proteinase K [6]): ≤ 1 min
Molecule: C#CCCC(=O)NCCCC[C@@H](NC(=O)[C@H](Cc1ccccc1)NC(=O)[C@@H](NC(=O)[C@H](CCC(N)=O)NC(=O)[C@H](CCC(N)=O)NC(=O)[C@H](CO)NC(=O)[C@H](CCC(N)=O)NC(=O)CNC(=O)CNC(=O)c1ccc2c(c1)C(=O)OC21c2ccc(O)cc2Oc2cc(O)ccc21)[C@@H](C)O)C(=O)N[C@@H](CC(N)=O)C(=O)N[C@@H](CC(C)C)C(=O)N[C@@H](Cc1c[nH]c2ccccc12)C(=O)N[C@@H](CCCNC(=N)N)C(=O)N[C@@H](CC(C)C)C(=O)N[C@@H](CC(C)C)C(=O)N[C@@H](CCCN=[N+]=[N-])C(=O)N[C@@H](CCC(N)=O)C(=O)N[C@@H](CC(N)=O)C(N)=O [p53pep]
cell viability at corresponding dose (HepG2 cells): more than 80%

Kd [7]: 80.6 nM | Kd [8]: 27.7 nM
Molecule: MDM2(1-118), a part of the target protein possessing the p53pep binding site (from UniProt Q00987 1-118) (domain or fragment)
